Reference: ChEMBL document CHEMBL1158896, “Isolation and structure of the cytotoxic cycloheptapeptide phakellistatin 13” (2003)
Calls of active or inactive are those of the source. No cut-off for these calls is given here. Where a SMILES comes first, the peptide text is derived from it.

What was measured:
HL-60 = assay: Cytotoxicity against human HL60 cells; type: functional, cell-based
[1] = Cytotoxicity against human Bel7404 cells; type: functional; details: BEL-7404, read-out: ED50 (the source's name)

Row | Structure (SMILES) | Activity (HL-60) | EC50 [1]
1 | CC(C)C[C@@H]1NC(=O)[C@H]([C@@H](C)O)NC(=O)[C@@H]2CCCN2C(=O)CNC(=O)[C@H](Cc2ccccc2)NC(=O)[C@@H]2CCCN2C(=O)[C@H](Cc2c[nH]c3ccccc23)NC1=O (cyclo(FGPTLWP)) | inactive | 
2 | CC(C)C[C@@H]1NC(=O)[C@H](Cc2c[nH]c3ccccc23)NC(=O)[C@@H]2CCCN2C(=O)[C@H](Cc2ccccc2)NC(=O)CNC(=O)[C@@H]2CCCN2C(=O)[C@H]([C@@H](C)O)NC1=O [PHAKELLISTATIN 13] (cyclo(FPWLTPG)) |  | < 0.01 µg/mL
